The assay addresses T1, ThAOS (Thermus thermophilus, UniProt Q5SHZ8).
T1 construct: gene TTHA1582; recombinant, codon-optimized clone (GenScript), expressed in E. coli BL21 (DE3), purified
T1 sequence (Q5SHZ8 2-395): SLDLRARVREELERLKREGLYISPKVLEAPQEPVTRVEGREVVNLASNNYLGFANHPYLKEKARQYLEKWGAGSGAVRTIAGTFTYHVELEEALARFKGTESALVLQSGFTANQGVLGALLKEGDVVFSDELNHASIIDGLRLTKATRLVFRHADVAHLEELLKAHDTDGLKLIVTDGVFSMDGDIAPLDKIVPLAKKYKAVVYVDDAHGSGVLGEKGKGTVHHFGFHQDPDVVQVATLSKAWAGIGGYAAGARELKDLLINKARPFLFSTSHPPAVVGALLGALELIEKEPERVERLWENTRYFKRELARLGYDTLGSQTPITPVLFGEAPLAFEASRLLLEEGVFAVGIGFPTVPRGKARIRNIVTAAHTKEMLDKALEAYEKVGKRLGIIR
Description: DTNB assay of CoASH release; product confirmed by mass spectrometry. The class given is biochemical. The following applies: co-substrate acyl-CoA; 50 °C.

As for `NCC(=O)O` [Gly], the “DTNB assay of CoASH release; product confirmed by mass spectrometry” value is “ThAOS was active with AAs (S)-2-aminobutyric acid (L-Aba), L-Ala, Gly and L-Ser”.

The values above are taken from publication PMC10230504, “Versatile Chemo-Biocatalytic Cascade Driven by a Thermophilic and Irreversible C–C Bond-Forming α-Oxoamine Synthase” (ACS Sustainable Chemistry & Engineering, 2023).
